In patent US6355799B1, “Substituted benzene compounds, process for their preparation, and herbicidal and defoliant compositions containing them” (ISK Americas Incorporated, priority 1997, dated 2002):

What was measured:
Assay type in all cases: in vivo
[1] = tested on: ivyleaf morningglory (Ipomoea hederacea, IPOHE); assay: Pre-emerge test, greenhouse herbicide activity screening; conditions: rated 14 days after application, 0 = no damage, 100 = complete death
Outline: (§1)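 Compounds in acetone were track-sprayed at 15-1000 g ai/ha (187 l/ha) on sandy loam pots: pre-emerge one day after seeding, post-emerge at 2-3 leaf stage with 0.25% v/v non-ionic surfactant. Phytotoxicity was rated 14 days later on a 0 (no damage) to 100 (complete death) scale.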

[2] = tested on: barnyardgrass (Echinochloa crus-galli, ECHCG); assay: as above; conditions: rated 14 days after application, 0 = no damage, 100 = complete death
Outline: as §1

[3] = tested on: velvetleaf (Abutilon theophrasti, ABUTH); assay: as above; conditions: rated 14 days after application, 0 = no damage, 100 = complete death
Outline: as §1

[4] = tested on: johnsongrass (Sorghum halepense, SORHA); assay: as above; conditions: rated 14 days after application, 0 = no damage, 100 = complete death
Outline: as §1

[5] = tested on: large crabgrass (Digitaria sanguinalis, DIGSA); assay: as above; conditions: rated 14 days after application, 0 = no damage, 100 = complete death
Outline: as §1

[6] = tested on: sicklepod (Cassia obtusifolia, CASOB); assay: as above; conditions: rated 14 days after application, 0 = no damage, 100 = complete death
Outline: as §1

[7] = tested on: lambsquarters (Chenopodium album, CHEAL); assay: as above; conditions: rated 14 days after application, 0 = no damage, 100 = complete death
Outline: as §1

[8] = tested on: common ragweed (Ambrosia artemisizfolia L., AMBEL); assay: as above; conditions: rated 14 days after application, 0 = no damage, 100 = complete death
Outline: as §1

[9] = tested on: green foxtail (Setaria viridis, SETVI); assay: as above; conditions: rated 14 days after application, 0 = no damage, 100 = complete death
Outline: as §1

[10] = tested on: upland rice (Oryza sp., var. Tebonnet, RICE); assay: Post-emerge test, crop safety; conditions: post-emerge, 14 days after application, rating scale 0-100
Outline: as §1

[11] = tested on: field corn (Zea mays L., var. Dekalb 535, CORN); assay: Post-emerge test, crop safety; conditions: post-emerge, 14 days after application, rating scale 0-100
Outline: as §1

[12] = tested on: upland rice (Oryza sp., var. Tebonnet, RICE); assay: Pre-emerge test, crop safety; conditions: rated 14 days after application, 0 = no damage, 100 = complete death
Outline: (§2)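 Rating: 0–100 visual injury, 14 DAA. Application: acetone, 187 l/ha, 15–1000 g ai/ha, flat-fan track sprayer with nozzle 40–45 cm above soil or canopy. Post-emerge runs used 0.25% v/v surfactant on 2–3 leaf plants.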

[13] = tested on: field corn (Zea mays L., var. Dekalb 535, CORN); assay: Pre-emerge test, crop safety; conditions: rated 14 days after application, 0 = no damage, 100 = complete death
Outline: as §2

[14] = tested on: ivyleaf morningglory (Ipomoea hederacea, IPOHE); assay: Post-emerge test, greenhouse herbicide activity screening; conditions: post-emerge, 14 days after application, rating scale 0-100
Outline: (§3)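 Compounds in acetone were track-sprayed at 187 l/ha, 15–1000 g ai/ha, onto sandy loam pots. Pre-emerge seeds were sown one day before spraying, with surface watering afterwards. Post-emerge plants were at the 2–3 leaf stage and sprayed with 0.25% v/v non-ionic surfactant. Injury was rated 0–100 at 14 days.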

[15] = tested on: barnyardgrass (Echinochloa crus-galli, ECHCG); assay: as above; conditions: post-emerge, 14 days after application, rating scale 0-100
Outline: as §3

[16] = tested on: velvetleaf (Abutilon theophrasti, ABUTH); assay: as above; conditions: post-emerge, 14 days after application, rating scale 0-100
Outline: as §3

[17] = tested on: johnsongrass (Sorghum halepense, SORHA); assay: as above; conditions: post-emerge, 14 days after application, rating scale 0-100
Outline: as §3

[18] = tested on: large crabgrass (Digitaria sanguinalis, DIGSA); assay: as above; conditions: post-emerge, 14 days after application, rating scale 0-100
Outline: as §3

[19] = tested on: sicklepod (Cassia obtusifolia, CASOB); assay: as above; conditions: post-emerge, 14 days after application, rating scale 0-100
Outline: as §3

[20] = tested on: lambsquarters (Chenopodium album, CHEAL); assay: as above; conditions: post-emerge, 14 days after application, rating scale 0-100
Outline: as §3

[21] = tested on: common ragweed (Ambrosia artemisizfolia L., AMBEL); assay: as above; conditions: post-emerge, 14 days after application, rating scale 0-100
Outline: as §3

[22] = tested on: redroot pigweed (Amaranthus retroflexus, AMARE); assay: as above; conditions: post-emerge, 14 days after application, rating scale 0-100
Outline: as §3

[23] = tested on: redroot pigweed (Amaranthus retroflexus, AMARE); assay: Pre-emerge test, greenhouse herbicide activity screening; conditions: rated 14 days after application, 0 = no damage, 100 = complete death
Outline: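 Herbicidal damage is scored 0 (none) to 100 (complete plant death) two weeks after a simulated field spray. Rates span 15–1000 g ai/ha, delivered in acetone at 187 l/ha. For post-emergence treatments, plants have 2–3 leaves and the spray carries 0.25% v/v non-ionic surfactant.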

COc1c(Cl)cc(F)c(-n2c(=O)cc(C(F)(F)F)n(C)c2=O)c1NC(=O)c1ccc(OC(F)(F)F)cc1 [2-72]
0: Pre-emerge Herbicidal Activity, phytotoxicity rating (0-100), ECHCG ([2]; 63 g ai/ha) | Pre-emerge Herbicidal Activity, phytotoxicity rating (0-100), SORHA ([4]; 63 g ai/ha) | Pre-emerge Herbicidal Activity, phytotoxicity rating (0-100), AMBEL ([8]; 63 g ai/ha) | phytotoxicity rating RICE ([10]; 63 g ai/ha) | phytotoxicity rating CORN ([11]; 63 g ai/ha) | Pre-emerge phytotoxicity rating (0-100), crop damage, CORN ([13]; 63 g ai/ha) | phytotoxicity rating ECHCG ([15]; 63 g ai/ha) | phytotoxicity rating ECHCG ([15]; 250 g ai/ha) | phytotoxicity rating SORHA ([17]; 63 g ai/ha) | phytotoxicity rating SORHA ([17]; 250 g ai/ha) | phytotoxicity rating DIGSA ([18]; 63 g ai/ha) | phytotoxicity rating DIGSA ([18]; 250 g ai/ha)
80: phytotoxicity rating CHEAL ([20]; 250 g ai/ha)
5: Pre-emerge phytotoxicity rating (0-100), crop damage, CORN ([13]; 250 g ai/ha)
30: Pre-emerge Herbicidal Activity, phytotoxicity rating (0-100), DIGSA ([5]; 63 g ai/ha) | Pre-emerge Herbicidal Activity, phytotoxicity rating (0-100), CASOB ([6]; 63 g ai/ha)
10: phytotoxicity rating CORN ([11]; 250 g ai/ha) | Pre-emerge phytotoxicity rating (0-100), crop damage, RICE ([12]; 63 g ai/ha)
95: phytotoxicity rating CASOB ([19]; 250 g ai/ha)
90: Pre-emerge Herbicidal Activity, phytotoxicity rating (0-100), CASOB ([6]; 250 g ai/ha) | phytotoxicity rating AMARE ([22]; 250 g ai/ha)
70: phytotoxicity rating CASOB ([19]; 63 g ai/ha) | phytotoxicity rating CHEAL ([20]; 63 g ai/ha) | phytotoxicity rating AMBEL ([21]; 63 g ai/ha) | phytotoxicity rating AMARE ([22]; 63 g ai/ha)
60: Pre-emerge Herbicidal Activity, phytotoxicity rating (0-100), SETVI ([9]; 63 g ai/ha) | phytotoxicity rating IPOHE ([14]; 250 g ai/ha) | phytotoxicity rating AMBEL ([21]; 250 g ai/ha)
100: Pre-emerge Herbicidal Activity, phytotoxicity rating (0-100), ABUTH ([3]; 63 g ai/ha) | Pre-emerge Herbicidal Activity, phytotoxicity rating (0-100), ABUTH ([3]; 250 g ai/ha) | Pre-emerge Herbicidal Activity, phytotoxicity rating (0-100), DIGSA ([5]; 250 g ai/ha) | Pre-emerge Herbicidal Activity, phytotoxicity rating (0-100), CHEAL ([7]; 63 g ai/ha) | Pre-emerge Herbicidal Activity, phytotoxicity rating (0-100), CHEAL ([7]; 250 g ai/ha) | Pre-emerge Herbicidal Activity, phytotoxicity rating (0-100), SETVI ([9]; 250 g ai/ha) | phytotoxicity rating ABUTH ([16]; 63 g ai/ha) | phytotoxicity rating ABUTH ([16]; 250 g ai/ha) | Pre-emerge Herbicidal Activity, phytotoxicity rating (0-100), AMARE ([23]; 63 g ai/ha) | Pre-emerge Herbicidal Activity, phytotoxicity rating (0-100), AMARE ([23]; 250 g ai/ha)
20: Pre-emerge Herbicidal Activity, phytotoxicity rating (0-100), IPOHE ([1]; 63 g ai/ha) | Pre-emerge Herbicidal Activity, phytotoxicity rating (0-100), IPOHE ([1]; 250 g ai/ha) | phytotoxicity rating RICE ([10]; 250 g ai/ha)
40: Pre-emerge phytotoxicity rating (0-100), crop damage, RICE ([12]; 250 g ai/ha)
50: Pre-emerge Herbicidal Activity, phytotoxicity rating (0-100), ECHCG ([2]; 250 g ai/ha) | Pre-emerge Herbicidal Activity, phytotoxicity rating (0-100), SORHA ([4]; 250 g ai/ha) | Pre-emerge Herbicidal Activity, phytotoxicity rating (0-100), AMBEL ([8]; 250 g ai/ha) | phytotoxicity rating IPOHE ([14]; 63 g ai/ha)
